The test relates to calvarial skull bones (hemicalvaria). As to the kind of experiment: Calvarial skull assay (bone organ culture, weight and histological readout). Also on record: species or system CD1 mice. On the procedure:
CD1 pups are harvested around birth from CD1 female mice (received from Janvier (Le Genest St Isle, France) when they were 11 days pregnant). Pups are decapitated and the calvarial skull is dissected and split into 2 hemicalvaria. Hemicalvaria are blotted using sterile gauze, weighed and cultured in 24 well plates (MEMalpha or BGJb-Fitton-Jackson medium containing 50 μg/ml L-ascorbic acid (Sigma, A-4034), 5 mM β-glycerophosphate (Sigma, G-9891) and Penicillin-Streptomycin (Invitrogen Cat # 15140-122)). Small molecules (ligands, agonists, antagonists) are tested in at least three-fold at a minimum of 3 concentrations. Each small molecule is added to the medium on day 0 and added again when refreshing the medium (every 2-3 days). Three to 16 days after the start of the experiment, skulls are weighed again after blotting them dry using sterile gauze. The weight difference is calculated, expressed as percent weight change and the mean and standard deviations (SD) are calculated for the triplicate measurements. Data are analyzed using the Student's t-test.
The formation of new osteoid is analyzed histologically as follows: hemicalvaria are fixed in 10% buffered formalin for at least 2 days, decalcified in 10% EDTA overnight, processed through graded alcohols and embedded in paraffin wax. Three to 10 μm sections are prepared of the calvaria and stained with hematoxylin and eosin (H&E). Healthy cells, dead cells, old and new bone, and collagen are identified by their distinctive morphology and colouring observed after H&E staining. The surfaces taken by these are measured stereologically (μm^2 readout) and termed Osteoblast area, Debris area, Native and New bone area, Collagen area and Total area (sum of the previous 5 areas), respectively. In addition, the thickness (μm readout) is measured at 8 positions, evenly spaced over the section.
The histological readout of the calvarial skull assay is developed using known osteogenic agents. Hemicalvaria were treated with recombinant human parathyroid hormone (rhPTH).
T0901317 is added to the culture medium of the dissected hemicalvaria at the day of dissection at several doses (19.5, 78.1 and 313 nM), in fourfold. The concentration of the solvent (vehicle), DMSO, is fixed at a final concentration of 0.05%. The medium, containing T0901317 or vehicle control is refreshed every 2-3 days. Hemicalvaria are harvested 7 days after the initiation of the experiment and subjected to the histological analysis described above.

Where [1] appears, read: 19.5, 78.1 and 313 nM, 7 days, H&E histology.
Setting [2] is: 19.5, 78.1 and 313 nM, 7 days, H&E histology, versus 0.05% DMSO.

Entries after “also recorded” stand apart in the source; their conditions may differ.

As for `O=S(=O)(c1ccccc1)N(CC(F)(F)F)c1ccc(C(O)(C(F)(F)F)C(F)(F)F)cc1` [T0901317], under setting [1], the thickness result is given as “Dose-response activity” and the “total area (sum of all areas measured)” value is recorded as “Dose-response activity”. Under setting [2], the collagen area result is “Statistically significant increases”, the new bone area result was “Statistically significant increases” and the osteoblast area entry is given as “Statistically significant increases; also recorded: Dose-response activity”. Where the note is “figure legends FIG. 17 and FIG. 18”, the “weight change of calvarial skull explants” value is recorded as “Weight increases”.

Source of the values: patent US20060014231A1, “Methods and compositions to promote bone homeostasis” (priority 2004, published 2006).
